# Laboratory results from US20030087830A1, “Low molecular weight components of cartilage, complexes of metals with amino acids, DI-peptides and analogs thereof; processes for preparation and therapeutic uses thereof” (priority 2001, published 2003).
# Legend:
# [1] = tested on: Endothelial cells (HUVEC, BAEC); experiment: Endothelial cell proliferation; format: cell-based, human / bovine; settings: 48 hours; copper equivalent; NA = less than 50% at 1.25 mM copper equivalent; read-out: EC proliferation (EC50 mM)
# Protocol: (§1) Endothelial and tumor cell proliferation assays were performed to determine the ability of test samples to inhibit endothelial cell proliferation (antiangiogenic activity), normal cell proliferation,and tumor cell proliferation.
# (§2) Endothelial cells (Human umbilical vein endothelial cells (HUVEC), bovine aortic endothelial cells (BAEC)), skeletal muscle cells, human dermal fibroblasts (all from Clonetics, Walkersville, Md.) were respectively maintained in EBM-2, MDEM, SKGM and FGFM-2 complete media according to manufacturer's instructions. Tumor rat glioblastoma cell line (C6) was maintained in DMEM (Sigma, Oaksville, Ontario) supplemented with 10% fetal calf serum (FCS) and antibiotics in 5% CO2. Briefly, cells seeded in 96-well sterile tissue culture dishes were treated with increasing concentrations of different test samples for a period of 48 hours at 37° C. Cell number was then evaluated by a calorimetric assay using the cell proliferation reagent tetrazolium salt and the fluorimetric assay using DNA dye (Hoescht) according to the procedure established by the manufacturer (Boehringer Mannhein). The conversion of these tetrazolium salts into formazan occurs only in metabolically active cells. The percentage of cell inhibition was determined by comparison to untreated cells.
# According to the endothelial cell proliferation assay, the relative effectiveness of two compounds is compared by reference to the EC50 thereof. The EC50 is the concentration of compound at which the number of endothelial cells is reduced by 50% as compared to control. The efficacy of the test samples in EVT is established by the percent of eggs with altered angiogenesis at a given inhibitor dose of 0.6 mg of copper equivalent (see FIG. 6 for examples). A comparison of the antiangiogenic activity of the compounds of the present invention with divalent metal salts (CuCl2, MgCl2, ZnCl2, CoCl2) and uncoupled alpha-amino acids, alpha-imino acids, dipeptides, and nitrogenated molecules comprising a carboxylic acid group, such as creatine, is provided to illustrate that the formation of the amino acid-copper complex gives rise to complexes having antiangiogenic activity.
# [2] = Affinity of the amino acid with copper; format: physicochemical
# [3] = tested on: bFGF-stimulated blood vessel formation in Matrigel; experiment: Matrigel in vivo angiogenesis assay; set-up: species or system C57B1/6 mice; settings: intra-peritoneal daily 10 days
# Protocol: The Matrigel™ in vivo assay was performed to determine the ability of test samples to inhibit blood vessel formation (antiangiogenic activity) and to establish their bioavailability in vivo.
# Briefly, liquid Matrigel™ (Becton Dickinson, Bedford, Mass.) was maintained at 4° C. and mixed thoroughly for at least 3 hours with 1,500 ng/ml basic fibroblast growth factor (bFGF) (R&D Systems, Minneapolis, Minn.) used as the primary angiogenic stimulus. The mixture (0.5 ml) was injected subcutaneously into the ventral midline of C57B1/6 mice, and treatment with different test samples or saline solution was initiated the same day. Additional animals were also injected with Matrigel™ containing no bFGF to serve as baseline controls. The animals were treated daily for a 10 day period (intra-peritonealy, 0.2 ml of each dose). At day 11, animals were injected with FITC-dextran 20 min prior to euthanizing treated mice. Matrigel™ gels were removed along with underlying peritoneum and prepared for FITC-dextran detection by fluorimetry. The concentration of FITC-dextran in the gels was calculated from a known concentration of FITC-dextran using a standard curve. The FITC-dextran content of the gels from compound-treated animals and controls was expressed as a percent of the positive bFGF-treated controls after the baseline control of FITC-dextran levels were subtracted from all groups.
# [4] = tested on: Striated muscle cells (skeletal muscle cells); experiment: Striated muscle cell proliferation; format: cell-based; settings: 48 hours; free amino acids and Glu-Trp 2.5 mM, CuCl2 1.25 mM
# Protocol: as §1, §2
# [5] = tested on: Lewis lung carcinoma clone M27; experiment: Lewis Lung Carcinoma metastatic mouse model (LLC); format: in vivo, C57BL/10 female mice; settings: 2.5 mg/kg, intraperitoneal daily for two weeks; lung surface metastases
# From the text: The Lewis Lung Carcinoma mouse model (LLC) was used to determine the ability of different test samples to inhibit the formation of metastases within the lung. The Lewis lung carcinoma clone M27, with a high metastatic potential to the lung, was established by Dr P. Brodt (Brodt P, Characterization of two highly metastatic variants of Lewis lung carcinoma with different organ specificities. Cancer Res., 46: 2442, 1986). This model is well established and is known for its predictive correlation between in vitro and in vivo activity. Briefly, LLC cells were transplanted subcutaneously in the axillary region of the right flank of C57BL/10 female mice (Charles River Inc.) When the primary tumor reached a size of 0.5-1.0 cm^3 (day 10 post-inoculation), the tumor was carefully separated from the surrounding healthy tissues. Treatment with different test samples started the day following tumor removal (day 11 post-inoculation). Saline or different test samples were administered daily for two weeks by intraperitoneal injection (0.2 ml of each dose). As previous experiments had shown that a period of approximately two weeks after removal of the primary tumor was sufficient to obtain an average of 30 to 50 nodules on the lung surface, animals were sacrificed in a CO2 chamber two weeks later. Following autopsy, both lungs were removed, weighed and fixed in 10% Bouin's fixative. Lung surface metastases were counted using a stereomicroscope (4×).
# human dermal fibroblasts = experiment: Fibroblast proliferation; format: cell-based; settings: 48 hours; free amino acids and Glu-Trp 2.5 mM, CuCl2 1.25 mM
# Protocol: as §1, §2
# C6 glioblastoma cells = experiment: C6 glioblastoma cell proliferation; format: cell-based, rat; settings: 48 hours; free amino acids and Glu-Trp 2.5 mM, CuCl2 1.25 mM
# Protocol: as §1, §2
# Endothelial cells = experiment: Endothelial cell tubule formation assay (tubulogenesis); format: cell-based; set-up: key to Tubulogenesis: 0: Numerous capillary-like tube forming pentagonal network; +: Decrease of capillary-like tubes; ++: Dramatic decrease of capillary-like tubes; +++: Absence of capillary-like tubes
# Protocol: The endothelial cell tubule formation assay is a semi-quantitative assay that was performed to determine the ability of test samples to inhibit this multi-step process, which involves cell adhesion, migration, differentiation and growth, using a commercial kit (Chemicon). Briefly, endothelial cells were seeded on solid gel of Ecmatrix™ (Chemicon), basement proteins prepared from the Engelbreth Holm-Swarm (EHS) mouse tumor in microplate in a E-99 media (Sigma) supplemented with 5% FBS and VEGF (50 ng/ml) in the presence or absence of the test sample. Cells were incubated for a period of 24 hours at 37° C. Pictures were taken on the entire tissue culture dish using a binocular microscope for further evaluation.
substance,measurement,setting,value
L-Asp Cu L-Asp [Compound 6],EC50,[1],0.29 mM
same,Affinity of the AA with Cooper,[2],16.0
same,Matrigel in vivo % of inhibition,[3]; 0.14 mg/Kg equivalent copper,27.7% of inhibition
same,Matrigel in vivo % of inhibition,[3]; 1.14 mg/Kg equivalent copper,22.6% of inhbition
same,Matrigel in vivo % inhibition,[3]; 1.4 mg/Kg equivalent copper,22.6%
same,Striated muscle (EC50 (mM)),[4],Non-active
same,Antimetastatic activity (% inhibition) (at 2.5 mg/kg of Cu-complex),[5],26.9%
same,EC50,human dermal fibroblasts,1.15 mM
same,C6 glioblastoma (EC50 (mM)),C6 glioblastoma cells,Non-active
same,Tubulogenesis activity (in words),Endothelial cells,important activity
same,Tubulogenesis (in words),"Endothelial cells; 1.25 mmole (equivalent copper), 24 hours",Decrease of capillary-like tube formation
same,Tubulogenesis,"Endothelial cells; copper complexes, concentration not given, VEGF 50 ng/ml, 24 hours",+
